From ChEMBL document CHEMBL1201862, “PubChem BioAssay data set” (2004)
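48-hour exposure; five concentrations; linearly interpolated endpoints. GI50 is the concentration that inhibits growth by half.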 Activity calls are given as the source filed them. Cut-off read from the data, not from the text of the source: active = GI50 up to about 1.1 µM and inactive = higher.

Columns and labels:
Assay in all cases: DTP human tumour cell line panel, 48 h
MCF7 = system: MCF7
Malme-3M = system: Malme-3M
SK-OV-3 = system: SK-OV-3
NCI/ADR-RES = system: NCI/ADR-RES
SK-MEL-2 = system: SK-MEL-2
LOX IMVI = system: LOX IMVI
HOP-62 = system: HOP-62
HCT-15 = system: HCT-15
IGROV-1 = system: IGROV-1
A549 = system: A549
HCC 2998 = system: HCC 2998
ACHN = system: ACHN
NCI-H23 = system: NCI-H23
EKVX = system: EKVX
Hs-578T = system: Hs-578T
SR = system: SR
HT-29 = system: HT-29
A498 = system: A498
SW-620 = system: SW-620
SN12C = system: SN12C
MDA-N = system: MDA-N
CCRF-CEM = system: CCRF-CEM
BT-549 = system: BT-549
K562 = system: K562
UACC-257 = system: UACC-257
SNB-19 = system: SNB-19
PC-3 = system: PC-3
NCI-H460 = system: NCI-H460
SK-MEL-5 = system: SK-MEL-5
SF-268 = system: SF-268
KM12 = system: KM12
RPMI-8226 = system: RPMI-8226
CAKI-1 = system: CAKI-1
NCI-H226 = system: NCI-H226
TK-10 = system: TK-10
NCI-H522 = system: NCI-H522
SK-MEL-28 = system: SK-MEL-28
OVCAR-8 = system: OVCAR-8
SF-295 = system: SF-295
HOP-92 = system: HOP-92
SF-539 = system: SF-539
MDA-MB-231 = system: MDA-MB-231
RXF 393 = system: RXF 393
786-0 = system: 786-0
HCT-116 = system: HCT-116
OVCAR-4 = system: OVCAR-4
DU-145 = system: DU-145
SNB-75 = system: SNB-75
UO-31 = system: UO-31
COLO 205 = system: COLO 205
MOLT-4 = system: MOLT-4
OVCAR-3 = system: OVCAR-3
M14 = system: M14
OVCAR-5 = system: OVCAR-5
UACC-62 = system: UACC-62
MDA-MB-435 = system: MDA-MB-435
U-251 = system: U-251
T47D = system: T47D
HL-60 = system: HL-60

Measured: GI50

C=CC(=O)N1C/C(=C\c2ccc(Cl)cc2)C(=O)/C(=C/c2ccc(Cl)cc2)C1
active: MCF7 0.151 µM | Malme-3M 0.973 µM | SK-OV-3 0.656 µM | NCI/ADR-RES 0.436 µM | LOX IMVI 0.124 µM | HOP-62 0.317 µM | IGROV-1 0.353 µM | A549 0.356 µM | HCC 2998 0.296 µM | ACHN 0.286 µM | NCI-H23 0.492 µM | EKVX 0.885 µM | Hs-578T 0.321 µM | SR 0.05 µM | HT-29 0.0989 µM | A498 0.494 µM | SW-620 0.15 µM | SN12C 0.313 µM | MDA-N 0.214 µM | CCRF-CEM 0.175 µM | BT-549 0.329 µM | K562 0.265 µM | SNB-19 1 µM | PC-3 0.255 µM | NCI-H460 0.468 µM | SF-268 0.221 µM | KM12 0.234 µM | RPMI-8226 0.0263 µM | CAKI-1 0.343 µM | NCI-H226 0.237 µM | NCI-H522 0.514 µM | SK-MEL-28 0.442 µM | OVCAR-8 0.322 µM | SF-295 0.288 µM | SF-539 0.188 µM | MDA-MB-231 0.255 µM | RXF 393 0.275 µM | 786-0 0.21 µM | HCT-116 0.0923 µM | OVCAR-4 0.286 µM | DU-145 0.813 µM | SNB-75 0.405 µM | UO-31 0.335 µM | COLO 205 0.39 µM | MOLT-4 0.3 µM | OVCAR-3 0.31 µM | M14 0.255 µM | OVCAR-5 0.641 µM | UACC-62 0.294 µM | MDA-MB-435 0.262 µM | U-251 0.173 µM | HL-60 0.484 µM
inactive: SK-MEL-2 1.32 µM | UACC-257 1.19 µM | SK-MEL-5 1.36 µM | TK-10 1.39 µM | HOP-92 1.54 µM | T47D 2 µM
0.182 µM: HCT-15

CSC1(C(=O)O)C2CCC3C2CCC31 (configuration not stated)
> 100 µM: HCT-15
inactive: MCF7 > 100 µM | Malme-3M > 100 µM | SK-OV-3 > 100 µM | NCI/ADR-RES > 100 µM | SK-MEL-2 > 100 µM | LOX IMVI > 100 µM | HOP-62 > 100 µM | IGROV-1 > 100 µM | A549 > 100 µM | HCC 2998 > 100 µM | ACHN > 100 µM | NCI-H23 > 100 µM | EKVX > 100 µM | Hs-578T > 100 µM | SR > 100 µM | HT-29 > 100 µM | A498 > 100 µM | SW-620 > 100 µM | SN12C > 100 µM | MDA-N > 100 µM | CCRF-CEM 52.6 µM | BT-549 > 100 µM | K562 73.3 µM | UACC-257 > 100 µM | SNB-19 > 100 µM | PC-3 > 100 µM | NCI-H460 62.1 µM | SK-MEL-5 > 100 µM | SF-268 > 100 µM | KM12 > 100 µM | RPMI-8226 > 100 µM | CAKI-1 > 100 µM | NCI-H226 > 100 µM | TK-10 > 100 µM | NCI-H522 > 100 µM | SK-MEL-28 > 100 µM | OVCAR-8 > 100 µM | SF-295 > 100 µM | HOP-92 > 100 µM | SF-539 > 100 µM | MDA-MB-231 > 100 µM | RXF 393 > 100 µM | 786-0 > 100 µM | HCT-116 > 100 µM | OVCAR-4 > 100 µM | DU-145 > 100 µM | SNB-75 > 100 µM | UO-31 > 100 µM | COLO 205 > 100 µM | MOLT-4 > 100 µM | OVCAR-3 > 100 µM | M14 > 100 µM | OVCAR-5 > 100 µM | UACC-62 > 100 µM | MDA-MB-435 > 100 µM | U-251 > 100 µM | T47D > 100 µM | HL-60 99.5 µM

O=c1c2cc(I)ccc2nc(SCc2n[nH]c(=S)o2)n1Cc1ccccc1
17.3 µM: HCT-15
active: RXF 393 < 0.01 µM | UO-31 0.741 µM
inactive: MCF7 15.9 µM | Malme-3M 17.9 µM | SK-OV-3 23.4 µM | NCI/ADR-RES 19.1 µM | SK-MEL-2 15.6 µM | LOX IMVI 15.7 µM | HOP-62 19.1 µM | IGROV-1 16.6 µM | A549 20.4 µM | HCC 2998 18.8 µM | ACHN 15.3 µM | NCI-H23 16.3 µM | EKVX 19.3 µM | Hs-578T 20.6 µM | SR 20.5 µM | HT-29 22.3 µM | A498 18.6 µM | SW-620 19.7 µM | SN12C 14.1 µM | MDA-N 17.3 µM | CCRF-CEM 18.4 µM | BT-549 18.9 µM | K562 14.4 µM | UACC-257 18.1 µM | SNB-19 22.3 µM | PC-3 15.7 µM | NCI-H460 19.1 µM | SK-MEL-5 13.2 µM | SF-268 17.5 µM | KM12 16.9 µM | RPMI-8226 16.3 µM | CAKI-1 6.25 µM | NCI-H226 11.1 µM | TK-10 21 µM | NCI-H522 14.2 µM | SK-MEL-28 17.5 µM | OVCAR-8 19.1 µM | SF-295 17.3 µM | HOP-92 14.3 µM | SF-539 16.1 µM | MDA-MB-231 17.3 µM | 786-0 16.7 µM | HCT-116 16 µM | OVCAR-4 18.1 µM | DU-145 16.3 µM | SNB-75 4.78 µM | COLO 205 10.6 µM | MOLT-4 20.7 µM | OVCAR-3 15.2 µM | M14 20.5 µM | OVCAR-5 24.8 µM | UACC-62 12.5 µM | MDA-MB-435 19.3 µM | U-251 17.6 µM | T47D 14.8 µM | HL-60 4.71 µM
